Values quoted from earlier work, collected in patent publication US20240408079A1, “COMPOSITIONS AND METHODS FOR THE TREATMENT OF CANCER” (THE TRANSLATIONAL GENOMICS RESEARCH INSTITUTE, priority 2021, published 2024).

Legend:
EWS-FLI = settings: preclinical studies
ES cell lines = settings: multiple ES cell lines
[1] = preclinical studies, in vivo

Row | Molecule | transcriptional profiles driven by EWS-FLI (EWS-FLI) | tumorigenesis in vitro (EWS-FLI) | tissue culture cell viability (ES cell lines) | antitumoral activity [1]
1 | C/C(=N\NC(=O)c1cccc(S(=O)(=O)N2CCOCC2)c1)c1cc(Cl)ccc1O [SP-2509] | reverse the transcriptional profiles | significantly delay tumorigenesis | – | –
2 | Seclidemstat [SP-2577] | reverse the transcriptional profiles | significantly delay tumorigenesis | ability to impair tissue culture cell viability | little antitumoral activity in vivo
